Test results from publication PMC9964244, “Effects of Dimerization, Dendrimerization, and Chirality in p-BthTX-I Peptide Analogs on the Antibacterial Activity and Enzymatic Inhibition of the SARS-CoV-2 PL^pro Protein” (Pharmaceutics, 2023).
≈ marks a conversion by molar mass, not a printed value. Where “and” joins values, the source holds several entries; their conditions need not be identical. Equal values may be shown once. Bridge positions count the residues as written; N and C are the ends. Square brackets hold non-standard residues; d marks the D form. Ends that are not written are not given here. Peptide text beside a SMILES is read from it. I, II: the chains in the order shown.

Legend:
SARS-CoV-2 PL^pro [1] = molecular target: T1, SARS-CoV-2 PL^pro (Severe acute respiratory syndrome coronavirus 2, UniProt P0DTD1); assay: PL^pro enzymatic inhibition assay; assay type: biochemical; details: PL^pro from SARS-CoV-2; for inhibition at 10 µM: peptide 10 µM; for IC50: two independent experiments
T1 construct: made in house

E. coli ATCC 25922 = assay: MIC/MBC, broth microdilution and subculture on CA-MH agar; assay type: cell-based; set-up: key to Act (antibacterial activity): Bc, bactericidal; Bs, bacteriostatic; details: for MIC: broth microdilution; for MIC / MBC: triplicate, mode; for MBC: subculture on CA-MH agar, 37 °C, 24 h
Experimental: (§1) Bacterial isolates from the American Type Culture Collection (ATCC) were obtained from the Collection of Reference Bacteria on Health Surveillance, Oswaldo Cruz Foundation (FIOCRUZ) after phenotypic and molecular quality control and were registered at SISGEN under the number ADB556B. The minimum inhibitory concentration (MIC) was determined as previously described by Santos-Filho et al., 2021 [17], using the broth microdilution method. The MIC was the lowest concentration that inhibited microbial growth. […] MBC was defined as the lowest peptide concentration with no visible growth on the plate. […] The assay was performed in triplicate, and the values represent the mode of the obtained results.
(§2) Thus, to assess the relevance of the antimicrobial effect of p-Bth analogs, their Minimum Inhibitory Concentration (MIC) and Minimum Bactericidal Concentration (MBC) were analyzed against relevant bacteria. The evaluated strains were the Gram-positives: S. aureus ATCC 25923, S. epidermidis ATCC 35984, E. faecalis ATCC 29212, and E. faecium ATCC […] (Table 1); and the Gram-negatives: K. pneumoniae ATCC 700603, E. coli ATCC 25922, A. baumannii ATCC 19606, and P. aeruginosa ATCC 27853 (Table 2).

[2] = system: S. epidermidis ATCC 35984; assay: as above; assay type: cell-based; set-up: key to Act (antibacterial activity): Bc, bactericidal; Bs, bacteriostatic; details: for MIC: broth microdilution; for MIC / MBC: triplicate, mode; for MBC: subculture on CA-MH agar, 37 °C, 24 h
Experimental: as §1, §2

E. faecalis ATCC 29212 = assay: as above; assay type: cell-based; set-up: key to Act (antibacterial activity): Bc, bactericidal; Bs, bacteriostatic; details: for MIC: broth microdilution; for MIC / MBC: triplicate, mode; for MBC: subculture on CA-MH agar, 37 °C, 24 h
Experimental: as §1, §2

S. aureus ATCC 25923 = assay: as above; assay type: cell-based, Staphylococcus aureus; details: triplicate, mode; for MIC: broth microdilution; for MBC: subculture on CA-MH agar, 37 °C, 24 h
Experimental: as §1, §2

[3] = system: K. pneumoniae ATCC 700603; assay: as above; assay type: cell-based, Klebsiella pneumoniae; set-up: key to Act (antibacterial activity): Bc, bactericidal; Bs, bacteriostatic; details: for MIC: broth microdilution; for MIC / MBC: triplicate, mode; for MBC: subculture on CA-MH agar, 37 °C, 24 h
Experimental: as §1, §2

E. faecium ATCC 700221 = assay: as above; assay type: cell-based, Enterococcus faecium; set-up: key to Act (antibacterial activity): Bc, bactericidal; Bs, bacteriostatic; details: for MIC: broth microdilution; for MIC / MBC: triplicate, mode; for MBC: subculture on CA-MH agar, 37 °C, 24 h
Experimental: as §1, §2

P. aeruginosa ATCC 27853 = assay: as above; assay type: cell-based, Pseudomonas aeruginosa; set-up: key to Act (antibacterial activity): Bc, bactericidal; Bs, bacteriostatic; details: for MIC: broth microdilution; for MIC / MBC: triplicate, mode; for MBC: subculture on CA-MH agar, 37 °C, 24 h
Experimental: as §1, §2

A. baumannii ATCC 19606 = assay: as above; assay type: cell-based, Acinetobacter baumannii; set-up: key to Act (antibacterial activity): Bc, bactericidal; Bs, bacteriostatic; details: for MIC: broth microdilution; for MIC / MBC: triplicate, mode; for MBC: subculture on CA-MH agar, 37 °C, 24 h
Experimental: as §1, §2

[4] = Carboxyfluorescein leakage, vesicle permeabilization; details: 95% POPC / 5% POPG vesicles
Experimental: The permeabilization of lipid vesicles containing carboxyfluorescein was carried out using a spectrofluorometer model Fluorolog-3 FL3-122 from Horiba Jobin Yvon (Newark, NJ, USA) (dimers and tetramers) or in a spectrofluorometer model RF-1501 Shimadzu (Kyoto, Japan) (monomer). For RF-1501, the quantification of the fluorescence intensity was performed every 20 s. Two vesicle compositions were used: (1) 80% 1-palmitoyl-2-oleoyl-sn-glycero-3-phosphoethanolamine (POPE) and 20% 1-palmitoyl-2-oleoyl-sn-glycero- 3-phospho-(10-rac-glycerol) (POPG); and (2) 95% 1-palmitoyl-2-oleoyl-sn-glycero-3-phosphocholine (POPC) and 5% POPG. The percentage of leakage was obtained through the following equation:% release = (Fmeasured − Finitial)/(Ffinal − Finitial) × 100, where Ffinal is the average fluorescence value obtained after the addition of Triton, Finitial is the average of the initial values of the run before the addition of the peptide, and Fmeasured are the fluorescence values obtained at each point of the experiment.
Here, we evaluated two systems of membrane mimetics, including vesicles with a composition of 80% POPE and 20% POPG, and another with 95% POPC and 5% POPG. The first is widely used as a model of bacterial membranes, specifically of E. coli membrane. Membranes constituting POPC and POPG were used to mimic mammalian membranes due to the presence of choline-containing lipids in animal membranes.

SARS-CoV-2 PL^pro [5] = molecular target: T1, SARS-CoV-2 PL^pro; details: PL^pro from SARS-CoV-2; peptide 10 µM; ref 19 (Freire et al., 2021); cited from earlier work
Experimental: Table 3 PL^pro activity by peptide analogs of p-BThTX-I at the concentration of 10 μM and IC50 values. Representative concentration–response inhibition curves against PL^pro from SARS-CoV-2 are presented in the Supplementary Material (Figure S7). | column: Inhibition (%) at 10 µM; IC50 μM

SARS-CoV-2 = details: Vero cells; cited from earlier work
From the text: In December 2019, the first case of viral infection with a new coronavirus was reported in China, which was later named severe acute respiratory syndrome coronavirus 2 (SARS-CoV-2), and the disease caused by this was named coronavirus-2019 or COVID-19 by the WHO. This disease has taken on great proportions, causing a pandemic scenario and great global concern. Even with the improvements in disease control, there is still a need for new, specific antiviral therapeutic options. As antimicrobial peptides also have antiviral action, the L-dimer, D-dimer and L-tetramer, in addition to ...

erythrocytes = assay: Hemolysis assay; assay type: cell-based; details: at 512 µg/mL, 1 h, 37 °C, Triton X-100 1% positive control, duplicate
Experimental: Peptide hemolytic activity was determined as previously described^15. Peptides were incubated with erythrocytes in the range from 512 μg/mL to 0.06 μg/mL for 1 h at 37 °C. Triton X-100 1% was used as a positive control for hemolysis. Assays were performed in duplicate. The Research Ethics Committee approved this project under the number 90291518.4.0000.5426.

[6] = MBC/MIC ratio >4 suggests bacteriostatic

Molecule	inhibition at 10 µM (SARS-CoV-2 PL^pro [1])	IC50 (SARS-CoV-2 PL^pro [1])	MIC (E. coli ATCC 25922)	MBC (E. coli ATCC 25922)	MIC [2]	MBC [2]	MIC (E. faecalis ATCC 29212)	MBC (E. faecalis ATCC 29212)	MIC (S. aureus ATCC 25923)	MBC (S. aureus ATCC 25923)	MIC [3]	MBC [3]	MIC (E. faecium ATCC 700221)	MBC (E. faecium ATCC 700221)	MIC (P. aeruginosa ATCC 27853)	MBC (P. aeruginosa ATCC 27853)	MIC (A. baumannii ATCC 19606)	MBC (A. baumannii ATCC 19606)	other results
CC(C)C[C@@H](NC(=O)[C@@H](Cc1c[nH]cn1)NC(=O)[C@@H](Cc1ccc(O)cc1)NC(=O)[C@@H](CCCNC(=N)N)NC(=O)[C@@H](Cc1ccc(O)cc1)NC(=O)[C@@H](CCCCN)NC(=O)[C@H](N)CCCCN)C(=O)N[C@H](CCCCN)C(=O)N1CCC[C@@H]1C(=O)N[C@H](Cc1ccccc1)C(N)=O [D-monomer] (H-[dK][dK][dY][dR][dY][dH][dL][dK][dP][dF]-NH2)	85 ± 3%	3000 ± 1000 nM	185 µM (≈ 255 µg/mL)	256 µg/mL (≈ 186 µM)	>371 µM	>512 µg/mL	>371 µM	>512 µg/mL	>371 µM	>512 µg/mL	371 µM (≈ 511 µg/mL)	512 µg/mL (≈ 371 µM)	>371 µM	>512 µg/mL	>371 µM	>512 µg/mL	>371 µM	>512 µg/mL	
CC(C)C[C@@H](NC(=O)[C@@H](Cc1c[nH]cn1)NC(=O)[C@@H](Cc1ccc(O)cc1)NC(=O)[C@@H](CCCNC(=N)N)NC(=O)[C@@H](Cc1ccc(O)cc1)NC(=O)[C@@H](CCCCN)NC(=O)[C@H](N)CCCCN)C(=O)N[C@H](CCCCN)C(=O)N1CCC[C@@H]1C(=O)N[C@H](Cc1ccccc1)C(=O)NCCCC[C@H](NC(=O)[C@@H](Cc1ccccc1)NC(=O)[C@H]1CCCN1C(=O)[C@@H](CCCCN)NC(=O)[C@@H](CC(C)C)NC(=O)[C@@H](Cc1c[nH]cn1)NC(=O)[C@@H](Cc1ccc(O)cc1)NC(=O)[C@@H](CCCNC(=N)N)NC(=O)[C@@H](Cc1ccc(O)cc1)NC(=O)[C@@H](CCCCN)NC(=O)[C@H](N)CCCCN)C(N)=O [D-dimer] (I: H-[dK][dK][dY][dR][dY][dH][dL][dK][dP][dF]K-NH2 / II: H-[dK][dK][dY][dR][dY][dH][dL][dK][dP][dF]; amide I:11-II:C; N-terminus assumed)			32 μg/mL and 11 µM	32 µg/mL (≈ 11.2 µM)	16 µg/mL	16 µg/mL (≈ 5.58 µM)	178 µM and 512 μg/mL	512 µg/mL (≈ 178 µM)	256 μg/mL and 89 µM	>512 µg/mL	64 μg/mL and 22 µM	128 µg/mL (≈ 44.6 µM)	64 μg/mL and 22 µM	>256 µg/mL	256 μg/mL and 89 µM	512 µg/mL (≈ 178 µM)	5 µM (≈ 14.3 µg/mL)	64 µg/mL (≈ 22.3 µM)	fluorescein leakage ([4]; concentration not stated in the sentence (10 and 50 µM tested)): 20%; CF leakage ([4]; peptide 50 µM): 20%; Inhibition (%) at 10 µM (SARS-CoV-2 PL^pro [5]): 96.35 ± 0.91%; Act (antibacterial activity) (E. coli ATCC 25922; [6]): Bc; Act (antibacterial activity) [2, 6]: Bc; Act (antibacterial activity) (E. faecalis ATCC 29212; [6]): Bc; percentage inhibition of SARS-CoV-2 infection (SARS-CoV-2): 69%; Act (antibacterial activity) [3, 6]: Bc; Act (antibacterial activity) (E. faecium ATCC 700221; [6]): Bs; Act (antibacterial activity) (P. aeruginosa ATCC 27853; [6]): Bc; Act (antibacterial activity) (A. baumannii ATCC 19606; [6]): Bc
I: [dK][dK][dY][dR][dY][dH][dL][dK][dP][dF]KK-NH2 / II: [dK][dK][dY][dR][dY][dH][dL][dK][dP][dF]K / III: [dK][dK][dY][dR][dY][dH][dL][dK][dP][dF] / IV: [dK][dK][dY][dR][dY][dH][dL][dK][dP][dF] (amide I:11-IV:C, I:12-II:C, II:11-III:C) [D-tetramer]	94 ± 3%	2700 ± 500 nM	5 µM	>128 µg/mL	2 µM	16 µg/mL	5 µM	32 µg/mL	10 µM	64 µg/mL	5 µM	32 µg/mL	2 µM	16 µg/mL	5 µM	64 µg/mL	5 µM	32 µg/mL	hemolysis (erythrocytes): 28%
